Test results taken from US9505781B2, “Compositions comprising thienopyrimidine and thienopyridine compounds and methods of use thereof” (The Regents of the University of Michigan, priority 2013, dated 2016).

molecular target: T1, menin-MLL interaction (Homo sapiens, UniProt O00255); test: biochemical
T1 sequence (O00255 1-610): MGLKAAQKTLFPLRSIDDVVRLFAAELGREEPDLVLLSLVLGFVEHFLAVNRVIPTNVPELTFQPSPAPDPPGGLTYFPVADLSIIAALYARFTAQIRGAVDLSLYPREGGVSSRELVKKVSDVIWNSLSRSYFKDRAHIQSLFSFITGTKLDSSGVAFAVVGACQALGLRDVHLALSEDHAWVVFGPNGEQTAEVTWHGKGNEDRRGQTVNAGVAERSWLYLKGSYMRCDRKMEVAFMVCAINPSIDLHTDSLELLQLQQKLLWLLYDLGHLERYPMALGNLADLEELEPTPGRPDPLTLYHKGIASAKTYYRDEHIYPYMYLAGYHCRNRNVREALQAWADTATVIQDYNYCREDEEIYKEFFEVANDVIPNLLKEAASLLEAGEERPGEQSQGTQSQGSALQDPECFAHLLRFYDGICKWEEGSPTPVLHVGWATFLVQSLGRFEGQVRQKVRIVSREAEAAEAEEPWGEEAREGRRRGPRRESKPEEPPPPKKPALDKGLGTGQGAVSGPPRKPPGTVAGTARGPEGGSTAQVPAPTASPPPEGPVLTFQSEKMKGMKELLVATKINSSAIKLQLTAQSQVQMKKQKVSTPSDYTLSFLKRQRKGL
Text: Compounds that inhibit the interaction decrease the fluorescence anisotropy which is being used as a read-out for compound screening and for IC50 determination.

IC50 [nM] | SMILES
< 100 | CN1CCN(S(=O)(=O)Nc2ccc(CC(=O)N3CCN(c4ncnc5sc(CC(F)(F)F)cc45)CC3)cc2)CC1 [Compound 55]
500 to 2000 | O=c1[nH]c2ccc(CN3CCC(Nc4ncnc5sc(CC(F)(F)F)cc45)CC3)cc2[nH]1 [Compound 250]
< 100 | N#Cc1cc2c(CO)c(CN3CCC(Nc4ncnc5sc(CC(F)(F)F)cc45)CC3)ccc2n1Cc1cn[nH]c1 [Compound 335]
< 100 | Cc1nnc(Cn2c(C#N)cc3c(C)c(CN4CCC(Nc5ncnc6sc(CC(F)(F)F)cc56)CC4)ccc32)s1 [Compound 322]
100 to 500 | Nc1ccc(CC(=O)N2CCN(c3ncnc4sc(CC(F)(F)F)cc34)CC2)cc1 [Compound 69]
100 to 500 | N[C@H]1CN(Cc2ccccc2)CC[C@@H]1Nc1ncnc2sc(CC(F)(F)F)cc12 [Compound 166]
500 to 2000 | CCCc1cc2c(NC3CCN(Cc4ccccc4)CC3)ccnc2s1 [Compound 282]
< 100 | N#Cc1cc2cc(CN3CCC(Nc4ncnc5sc(CC(F)(F)F)cc45)CC3)ccc2n1CCO [Compound 179]
500 to 2000 | N#Cc1nc2ccc(CN3CCC(Nc4ncnc5sc(CC(F)(F)F)cc45)CC3)cc2o1 [Compound 248]
< 100 | Cc1c(CN2CCC(Nc3ncnc4sc(CC(F)(F)F)cc34)CC2)ccc2c1cc(C#N)n2Cc1cn[nH]c1 [Compound 309, 1-((1H-pyrazol-4-yl)methyl)-4-methyl-5-((4-((6-(2,2,2-trifluoroethyl)thieno[2,3-d]pyrimidin-4-yl)amino)piperidin-1-yl)methyl)-1H-indole-2-carbonitrile]
< 100 | N#C[C@H]1C[C@@H]1c1ccc(CN2CCC(Nc3ncnc4sc(CC(F)(F)F)cc34)CC2)cc1 [Compound 106]
500 to 2000 | O=C(CCCc1ccccc1)N1CCN(c2ncnc3sc(CC(F)(F)F)cc23)CC1 [Compound 93]
500 to 2000 | CCCc1cc2c(NC3CCN(Cc4ccc(C)cc4)CC3)ncnc2s1 [Compound 151]
< 100 | NCCS(=O)(=O)Nc1ccc(CC(=O)N2CCN(c3ncnc4sc(CC(F)(F)F)cc34)CC2)cc1 [Compound 50]
500 to 2000 | CC(c1cc2c(N3CCN(C4=NCC(C)(C)S4)CC3)ncnc2s1)C(F)(F)F (stereo not drawn) [Compound 38]
100 to 500 | O=C(Cc1ccccc1Cl)N1CCN(c2ncnc3sc(CC(F)(F)F)cc23)CC1 [Compound 70]
< 100 | Cc1c(CN2CCC(Nc3ncnc4sc(CC(F)(F)F)cc34)CC2)ccc2c1cc(C#N)n2CC(CO)OC(C)C (stereo not drawn) [Compound 302]
< 100 | N#Cc1cc2cc(CN3CCC(Nc4c(C#N)cnc5sc(CC(F)(F)F)cc45)CC3)ccc2[nH]1 [Compound 279]
100 to 500 | FC(F)(F)Cc1cc2c(NC3CCN(Cc4cccs4)CC3)ncnc2s1 [Compound 132]
500 to 2000 | O=C1NCCC1c1ccc(CC(=O)N2CCN(c3ncnc4sc(CC(F)(F)F)cc34)CC2)cc1 (stereo not drawn) [Compound 99]
< 100 | COCCOCCOC(CO)Cn1c(C#N)cc2cc(CN3CCC(Nc4ncnc5sc(CC(F)(F)F)cc45)CC3)ccc21 (stereo not drawn) [Compound 319]
500 to 2000 | COc1ccccc1CC(=O)N1CCN(c2ncnc3sc(CC(F)(F)F)cc23)CC1 [Compound 94]
< 100 | Cc1c(CN2CCC(Nc3ncnc4sc(CC(F)(F)F)cc34)CC2)ccc2c1cc(C#N)n2CCN1CCNC(=O)C1 [Compound 355]
100 to 500 | N#Cc1cc2cc(CN3CCC(Nc4ncnc5sc(CC(F)(F)F)cc45)CC3)ccc2n1Cc1cc(OCCCC2CC2)n[nH]1 [Compound 414]
< 100 | N#Cc1cc2cc(CN3CCC(Nc4ncnc5sc(CC(F)(F)F)cc45)CC3)ccc2n1Cc1cc[nH]n1 [Compound 199]
100 to 500 | CNn1c(C#N)cc2cc(CN3CCC(Nc4ncnc5sc(CC(F)(F)F)cc45)CC3)ccc21 [Compound 231]

IC50 [nM] | SMILES
100 to 500 | CCOc1c(CN2CCC(Nc3ncnc4sc(CC(F)(F)F)cc34)CC2)ccc2c1cc(C#N)n2CC(N)=O [Compound 409]
500 to 2000 | O=C(Cc1ccc(NS(=O)(=O)CC(F)(F)F)cc1Cl)N1CCN(C2=NC=NC3SC(CC(F)(F)F)=CC23)CC1 (stereo not drawn) [Compound 287]
100 to 500 | O=CN1CCCC1CN[C@H]1CN(Cc2ccccc2)CC[C@@H]1Nc1ncnc2sc(CC(F)(F)F)cc12 (stereo partly drawn) [Compound 170]
100 to 500 | N#Cc1c[nH]c2cc(CN3CCC(Nc4ncnc5sc(CC(F)(F)F)cc45)CC3)ccc12 [Compound 228]
500 to 2000 | NS(=O)(=O)c1ccc(CN2CCC(Nc3ncnc4sc(CC(F)(F)F)cc34)CC2)c(Cl)c1 [Compound 142]
500 to 2000 | OC(c1cc2c(N3CCN(c4nnc(C(F)(F)F)s4)CC3)ncnc2s1)C(F)(F)F (stereo not drawn) [Compound 23]
< 100 | Cc1c(CN2CCC(Nc3ncnc4sc(CC(F)(F)F)cc34)CC2)ccc2c1cc(C#N)n2CCn1cncn1 [Compound 304]
100 to 500 | O=C(Cc1cccc(F)c1)N1CCN(c2ncnc3sc(CC(F)(F)F)cc23)CC1 [Compound 73]
500 to 2000 | FC(F)(F)Cc1cc2c(NCC3CCN(Cc4ccc(C(F)(F)F)cc4Cl)CC3)ncnc2s1 [Compound 268]
< 100 | Cc1c(CN2CCC(Nc3ncnc4sc(CC(F)(F)F)cc34)CC2)ccc2c1cc(C#N)n2Cc1ncc[nH]1 [Compound 332]
100 to 500 | N#Cc1cc2cc(CN3CCC(Nc4ncnc5sc(CC(F)(F)F)cc45)CC3)ccc2n1N [Compound 230]
< 100 | N#Cc1cc2c(CO)c(CN3CCC(Nc4ncnc5sc(CC(F)(F)F)cc45)CC3)ccc2n1CCO [Compound 321]
< 100 | Cc1c(CN2CCC(Nc3ncnc4sc(CC(F)(F)F)cc34)CC2)ccc2c1cc(C#N)n2CCN1CCN(C(=O)CC2CCCCC2)CC1 [Compound 343]
< 100 | O=C(Cc1ccc(NS(=O)(=O)N2CCCCC2)cc1)N1CCN(c2ncnc3sc(CC(F)(F)F)cc23)CC1 [Compound 52]
< 100 | Cn1ccnc1Cn1c(C#N)cc2cc(CN3CCC(Nc4ncnc5sc(CC(F)(F)F)cc45)CC3)ccc21 [Compound 203]
< 100 | Cc1c(CN2CCC(Nc3ncnc4sc(CC(F)(F)F)cc34)CC2)ccc2c1cc(C#N)n2CCN1CCSCC1 [Compound 360]
< 100 | CNS(=O)(=O)Nc1ccc(CC(=O)N2CCN(c3ncnc4sc(CC(F)(F)F)cc34)CC2)cc1 [Compound 48]
< 100 | Cc1c(CN2CCC(Nc3ncnc4sc(CC(F)(F)F)cc34)CC2)ccc2c1cc(C#N)n2CCN1CCN[C@@H](C)C1 [Compound 367]
100 to 500 | FC(F)(F)Cc1cc2c(N3CCN(c4nnc(C5CC5)s4)CC3)ncnc2s1 [Compound 3]
< 100 | N#Cc1cc2c(Cl)c(CN3CCC(Nc4ncnc5sc(CC(F)(F)F)cc45)CC3)ccc2n1Cc1cn[nH]c1 [Compound 381]
< 100 | N#Cc1cc2cc(CN3CC[C@H](Nc4ncnc5sc(CC(F)(F)F)cc45)[C@H](CO)C3)ccc2[nH]1 [Compound 163]
100 to 500 | FC(F)(F)Cc1sc2ncnc(N3CCN(c4nnc(C(F)(F)F)s4)CC3)c2c1I [Compound 6]
500 to 2000 | CS(=O)(=O)N(CC1CC1)c1ccc(CC(=O)N2CCN(c3ncnc4sc(CC(F)(F)F)cc34)CC2)cc1 [Compound 102]
< 100 | N#Cc1cc2cc(CN3CCC(Nc4ncnc5sc(CC(F)(F)F)cc45)CC3)ccc2n1CCCC(F)(F)F [Compound 223]
100 to 500 | CC(=O)Nc1ccc(CN2CCC(Nc3ncnc4sc(CC(F)(F)F)cc34)CC2)cc1 [Compound 130]
